The values below come from a melting point compilation (Tetko et al.; mined from patent text by program, amines drawn as free bases though some values may be those of a salt).

A value given as a limit tells only on which side of the number the result lay.

`COc1ccccc1Oc1c(NS(=O)(=O)c2ccc(C)cn2)nc(N2CCOCC2)nc1OCCO`: the melting point lay in the range of 195 to 196 °C. To `CC(=O)NCC1CN(c2ccc(N3CCN(c4nnc(C#N)s4)C(F)C3)cc2)C(=O)O1` (stereo unspecified) belongs 200 to 202 °C.

On to `Cc1ncn(C)c1-c1nc(C2CC2)no1`, for which the melting point is 88 °C. Consider `CCCn1c(=O)c2[nH]c(C34CC5CC(CC(C5)C3)C4)nc2n(CCC)c1=O`, for which the melting point fell in the range of 169 to 171 °C. The value for `CCNC(=O)n1oc2ccccc2c1=O` was 112 to 113 °C. To `CC(=O)Nc1coc2ccc(C(C)(C)C)cc2c1=S` belongs 215 °C; to `CN1CCC(NC(c2cccc([N+](=O)[O-])c2)c2nc3ccccc3[nH]2)CC1` (stereo unspecified), 254 °C; to `N#Cc1cc(Cl)c(Cl)c(-c2ccc(Cl)cc2)n1`, 142 to 145 °C.

`Cn1cc(C(=O)NCc2ccc(Cl)cc2)c(=O)c2cc(CN3CCOCC3)cc(C#CCO)c21` had a melting point of 180 to 183 °C.

In turn, `O=C(O)C1=CC(CF)(CF)Oc2ccc(Cl)cc21` registered a melting point of 151 to 152 °C. On to `CCCCC(O)c1ccc2cc(O)ccc2c1` (stereo unspecified), for which the melting point lay in the range of 109 to 111 °C. As to `CN(C)c1cccc2nc3cccc(C(=O)O)c3nc12`, the melting point lay within 186 to 188 °C. For `CCc1nc2c(N)nc3ccccc3c2n1CCCCSC`, the melting point was 183 to 186 °C. In the case of `Cn1c(=O)c(-c2c(Cl)cccc2Cl)cc2cnc(Nc3ccc4c(c3)OCO4)nc21`, the melting point lay in the range of 240 to 241 °C.

For `Nc1ccc(CON=Cc2csc(N)n2)cc1`, the melting point was 181 to 183 °C.

`CCc1ccc(N(Cc2ccc(C(=O)N(C)C)cc2)C(=O)Nc2c(C(C)C)cccc2C(C)C)cc1` displayed a melting point of 170 to 172 °C. `COCc1c(C(=O)OC)ncc2[nH]c3ccccc3c12` came in with a melting point of 134 to 135 °C. `CCOC(=O)C1=C(C)NC(CO)=C(C(=O)OCC)C1c1ccccc1Cl` (stereo unspecified) showed a melting point of 143 °C. `CCCCCCCCCCCc1cccc(Oc2c(N)nc(N)nc2CC)c1` registered a melting point of 97 to 99 °C.

With `OC1Cc2ccccc2C1O` (stereo unspecified), the melting point lay in the range of 98 to 100 °C. The value for `Cc1cc(C)c2nc(C)c(NC(=O)Nc3cccc(C(F)(F)F)c3)c(-c3ccccc3Cl)c2c1` was 146 to 147 °C; that for `COc1cccc(N(CC(=O)N(C)c2ccccc2)C(=O)CNC(=O)Nc2cccc(CO)c2)c1` was 142 °C. For the compound `COc1cc(COc2nn(-c3ccccc3)cc2CC#N)ccc1OCc1nc(-c2ccco2)oc1C`, the melting point fell in the range of 153 to 154 °C. For `Cc1ccc2[nH]c3c(c2c1)C(=O)CCC3`, the melting point was over 255 °C. `CC(C)(C)OC(=O)NCc1ccc2c(Br)c(O)ccc2c1` yielded a melting point of 150 to 152 °C.

On to `CC(C)C(NC(=O)CCc1cccnc1)C(=O)NC(Cc1ccccc1)C(O)C(O)C(Cc1ccccc1)NC(=O)C(NC(=O)CCc1cccnc1)C(C)C` (stereo unspecified), for which the melting point was 260 to 263 °C. For `Cc1cc(-n2ccc(OCC3CC3)cc2=O)sc1C(=O)NCc1ccccc1`, the melting point is 175 to 177 °C. The value for `Clc1cc2nc(Cl)c(I)n2cc1Cl` was 215 to 216 °C. Consider `CCCCCCCCCCCCCCCCCCNC(=O)NCCCCCCN`, for which the melting point lay within 123 to 168 °C. The compound `O=C(c1ccc(-c2ccccc2)s1)c1ccc(Br)cc1Cl` registered a melting point of 132 to 134 °C. Compound `Oc1cccc2c1c1cccc(Cl)c1n2Cc1ccccc1` came in with a melting point of 163 to 166 °C.

Compound `Cc1nc2cc(NCC(=O)C3(C)CC3)ccc2s1` came in with a melting point of 116 to 120 °C.

With `CC(=O)Nc1ccn(C2OC(CO[Si](c3ccccc3)(c3ccccc3)C(C)(C)C)CC2F)c(=O)n1` (stereo unspecified), the melting point is 81 to 86 °C. Turning to `COC(=O)c1cc(I)cnc1Cl`, the melting point lay within 49 to 50 °C. Regarding `Cc1cc(Cl)cc(NC(=O)Cc2ccc(OC3(C(=O)O)CCCC3C)cc2)c1` (stereo unspecified), the melting point was in the range of 180 to 182 °C. `O=S(CCc1ccccc1)c1nc2cnccc2[nH]1` (stereo unspecified) had a melting point of 171 to 174 °C. Compound `CCC(C=CC(C)C1CCC2C3CC=C4CC(OC(=O)NCCO)CCC4(C)C3CCC12C)C(C)C` (stereo unspecified) returned a melting point of 172 to 173 °C. `Cc1ccc2c(c1)S(=O)CC(COC(=O)Nc1ccccc1)(COC(=O)Nc1ccccc1)C2=O` (stereo unspecified) showed a melting point of 65 to 73 °C. On to `COC(=O)Nc1nc2cc(C(O)c3ccc(F)cc3)ccc2[nH]1` (stereo unspecified), for which the melting point came to 300 °C. `CC(=O)N[C@@H](C)COc1cc2oc(-c3ccc(OC[C@H]4CC4(F)F)c(F)c3)nc2cn1` returned a melting point of 181 °C.

In turn, `O=C(NCC#CCN1CCCC1)N1c2ccccc2-c2noc3c2C1CCC3` (stereo unspecified) showed a melting point of 132 °C. As for `CC(C)CCC(=O)Nc1c(C(O)(C(F)(F)F)C(F)(F)F)ccc2ccccc12`, the melting point is 62 to 63 °C. With `Cc1ccccc1NS(=O)(=O)c1ccc(N2CCNC2=O)cc1`, the melting point lay in the range of 209 to 210 °C. The value for `O=C(N1C=CC2=C(CCC=C2)c2ccccc21)n1ccnc1` was 189 to 190 °C.

Compound `COc1ccc(C#Cc2ccncc2)c2c1OC1(CCCC1)C2` had a melting point of 128 to 131 °C. In turn, `COc1cc2c(cc1Nc1ncc(Cl)c(N[C@H]3[C@@H](C(N)=O)[C@@H]4C=C[C@H]3C4)n1)CCN(CC(=O)N(C)C)CC2` showed a melting point of 109 to 127 °C. For `CON=C(C)c1c(C)oc2c(-n3c(=O)cc(C(F)(F)F)n(C)c3=O)c(F)cc(Cl)c12`, the melting point lay within 65 to 67 °C. Regarding `CCn1cc(-c2ccc([C@H](C)N3CC[C@](CC(C)(C)O)(c4ccccc4)OC3=O)cc2)ccc1=O`, the melting point lay within 167 to 168 °C.

`COC(=O)c1ccc(OC)cc1Oc1cc(Cl)ccc1[N+](=O)[O-]` registered a melting point of 121 to 123 °C.

Turning to `COc1cc2c(c(Cl)c1Cl)C(=O)C(CCCCCl)C2` (stereo unspecified), the melting point worked out at 92 °C.

As to `CN1CCN(c2ccc(N/C=C3\C(=O)NC(=O)c4ccc(I)cc43)cc2)CC1`, the melting point was in the range of 220 to 221 °C. `COC(=NC(=O)c1ccccc1)NC(=O)c1ccccc1` had a melting point of 139 to 141 °C. Compound `O=C(Oc1cc(-c2ccccc2)nc2ccccc12)N1CCOCC1` yielded a melting point of 127 °C.

`Cc1ccc(C(C#N)=C2CCCCC2)cc1` had a melting point of 50.5 to 51.3 °C. `C=C(OCC)c1cc(N)c(OC)c(C(=O)OC)n1` gave a melting point of 72 to 73 °C. The compound `COC(=O)Nc1nc2ccccc2n1CCCN1CCN(C(c2ccccc2)c2ccccc2)CC1` came in with a melting point of 138 °C. With `Cc1c(Cc2ccccc2)c(=O)n2c(CN(C)Cc3ccccc3)c(-c3ccc(NC(=O)OC(C)(C)C)cc3)nc2n1Cc1c(F)cccc1F`, the melting point was in the range of 179 to 184 °C. Consider `NS(=O)(=O)c1ccc(/C(=C2\CCOC2=O)c2ccc(F)cc2)cc1`, for which the melting point was 202 °C.

Take `CCc1cc(C(=O)c2ccccc2Cl)c(-n2c(CNC(=O)c3cc4ccccc4[nH]3)nnc2C23CC4CC(CC(C4)C2)C3)s1`: the melting point fell in the range of 283 to 286 °C. For the compound `CCC(CO)Nc1cc(C)nc(Oc2c(C)cc(Cl)cc2C)c1CO` (stereo unspecified), the melting point lay in the range of 133 to 135 °C. `CS(=O)(=O)c1ccc(-c2oc3ccccc3c(=S)c2-c2ccc(F)cc2)cc1` had a melting point of 203 to 205 °C. Take `Cc1nc(C(=O)NC2CC2)c2n1-c1ccc(Cl)cc1C(c1ccccc1F)=NC2`: the melting point is 196 to 197 °C.

Turning to `CN(N=C(Cl)c1c(F)cccc1Cl)S(=O)(=O)c1ccccc1`, the melting point was 103 to 105 °C. `Cc1ccc2cccc3c2c1N(Cc1ccccc1)C3=NCCCn1ccnc1` had a melting point of 107 to 109 °C. `CC(=O)OC1(C(C)=O)C(C)CC2C3CC(C)C4=CC(=O)C=CC4(C)C3(Br)C(O)CC21C` (stereo unspecified) gave a melting point of 184 to 185 °C. Turning to `Clc1nc(-n2ccnc2)c2ccccc2c1-c1ccccc1`, the melting point was 165 to 168 °C. The value for `CCN(CC)c1ccc(C(O)C#Cc2ccc(C(=O)O)c(O)c2)cc1C(C)(C)C` (stereo unspecified) was 245 °C. As to `CCCc1c(OCCOc2cccc(C(=O)NCCCCc3cccnc3)c2)ccc(C(C)=O)c1O`, the melting point came to 90 °C. As for `Cc1cccc(C)c1CCCN1C(=O)c2ccccc2C1=O`, the melting point lay in the range of 92 to 93.5 °C.

Consider `COc1ccc(CCN2C=CC=C3C2=Nc2cc(C)ccc2S(=O)(=O)N3C)cc1`, for which the melting point stood at 128 °C.

`CCOC(=O)C=C(C)C=CC=C(C)C=Cc1c(C)c(Cl)c(C)c(Cl)c1C` showed a melting point of 220 to 222 °C. As for `CCC(=O)Oc1n[nH]c(=O)c2nc3cc(Cl)ccc3c(O)c12`, the melting point was in the range of 275 to 278 °C. `CN1CCC2(c3ccccc3)OC2C1` (stereo unspecified): the melting point fell in the range of 44 to 45 °C. `O=C(O)C1=C(S(=O)(=O)c2ccccc2)CC2CC(=O)C12` (stereo unspecified) showed a melting point of 205 to 207 °C. To `CCN1CC2CN(CC)CC(C1)C2O` (stereo unspecified) belongs 61.5 °C. `COc1ccc(S(=O)(=O)n2ccc3ccnc(Nc4ccc(F)cc4)c32)cc1` returned a melting point of 125 to 127 °C. As for `C[C@H]1CCCC(C)(C)[C@@H]1[C@H](O)c1ccc(C(F)(F)F)c(F)c1`, the melting point was in the range of 71 to 73 °C.

`O=C1CCc2cc(CN3CCN(C(=O)c4ccc(Oc5ccc(NC(=O)c6ccc(C(F)(F)F)cc6)cn5)cc4)CC3)ccc2N1` displayed a melting point of 250 to 252 °C. `COc1ccc(/C=C/C2=NS(=O)(=O)c3ccccc3N2)cc1OC` displayed a melting point of 276 to 279 °C. The value for `COCCCS(=O)(=O)NC(=O)/C=C/c1cc(OC(C)C)nn1Cc1ccc(C(F)(F)F)cc1Cl` was 138 to 139 °C.

For `CC(C)(C)c1cc(C(=S)OCc2ccccc2)cc(C(C)(C)C)c1O`, the melting point was 115 to 119 °C.

Take `CC(C)c1noc(-c2ncn3c2nc(N2CCOCC2)c2cc(F)ccc23)n1`: the melting point fell in the range of 262 to 264 °C. In turn, `COc1cc(-c2nc(-c3ccc(N(C)C)cc3)c(C)s2)cc(OC)c1O` displayed a melting point of 230 to 233 °C. `CC1(C)CC(c2ccccc2)Nc2c(C(=O)O)cnn21` (single isomer, unassigned; (-)) registered a melting point of 205 to 206 °C. `Cc1ccc(-c2cncc(CN3CC=C(c4ccccc4)CC3)c2)cc1` yielded a melting point of 133 to 135 °C. To `Cc1nn(C)c(Cl)c1C(=O)Nc1cccc2c1CCC2(C)C` belongs 175 °C.

The term melting point denotes the temperature, or range, at which the solid turns liquid.
